The compounds below were run on Boophilus microplus (assay: Boophilus microplus test (injection)). Settings: application rate 20 μg/animal, adult engorged females, after 7 days.
Format: in vivo
Method: Solvent: dimethyl sulfoxide
To produce a suitable preparation of active compound, 10 mg of active compound are dissolved in 0.5 ml solvent, and the concentrate is diluted with solvent to the desired concentration. Five adult engorged female ticks (Boophilus microplus) are injected with compound solution into the abdomen. Ticks are transferred into replica plates and incubated in a climate chamber for a period of time. Egg deposition of fertile eggs is monitored. After 7 days mortality in % is determined 100% means that all eggs are infertile; 0% means that all eggs are fertile.

Row | SMILES | activity (100% means that all eggs are infertile) [%]
1 | CSCC(=O)NCc1ccc(N2CCC(c3cc(Cl)cc(Cl)c3)(C(F)(F)F)C2)cc1C(F)(F)F (stereo not drawn) [1-186] | 100
2 | CSCC(=O)NCc1ccc(N2CCC(c3cc(C(F)(F)F)cc(C(F)(F)F)c3)(C(F)(F)F)C2)cc1C(F)(F)F (stereo not drawn) [1-966] | 100
3 | CS(=O)(=O)CC(=O)NCc1ccc(N2CCC(c3cc(Cl)cc(Cl)c3)(C(F)(F)F)C2)cc1C(F)(F)F (stereo not drawn) [1-495] | 100
4 | CNC(=O)N(C)Cc1ccc(N2CCC(c3cc(Cl)cc(Cl)c3)(C(F)(F)F)C2)cc1C(F)(F)F (stereo not drawn) [1-258] | 100
5 | CN(Cc1ccc(N2CCC(c3cc(Cl)cc(Cl)c3)(C(F)(F)F)C2)cc1C(F)(F)F)C(=O)NC1CC1 (stereo not drawn) [1-260] | 100
6 | CC(C)(C)OC(=O)NCc1ccc(N2CCC(c3cc(C(F)(F)F)cc(C(F)(F)F)c3)(C(F)(F)F)C2)cc1C(F)(F)F (stereo not drawn) [1-300] | 100
7 | CC(=O)NC1CCc2cc(N3CCC(c4cc(Cl)c(Cl)c(Cl)c4)(C(F)(F)F)C3)ccc21 (stereo not drawn) [6-267] | 100
8 | CCNC(=O)NCc1ccc(N2CCC(c3cc(Cl)c(Cl)c(Cl)c3)(C(F)(F)F)C2)cc1C(F)(F)F (stereo not drawn) [1-330] | 100
9 | O=C(NCc1ccc(N2CCC(c3cc(Cl)cc(Cl)c3)(C(F)(F)F)C2)cc1Cl)C(F)F (stereo not drawn) [1-21] | 100
10 | C=CCSCC(=O)NCc1ccc(N2CCC(c3cc(C(F)(F)F)cc(C(F)(F)F)c3)(C(F)(F)F)C2)cc1C(F)(F)F (stereo not drawn) [1-969] | 100
11 | NCc1ccc(N2CCC(c3cc(Cl)cc(Cl)c3)(C(F)(F)F)C2)cc1C(F)(F)F (stereo not drawn) [1-141] | 100
12 | CCC(=O)NCc1ccc(N2CCC(c3cc(Cl)c(Cl)c(Cl)c3)(C(F)(F)F)C2)cc1Cl (stereo not drawn) [1-338] | 100
13 | CCNC(=O)NCc1cnc(N2CCC(c3cc(C(F)(F)F)cc(C(F)(F)F)c3)(C(F)(F)F)C2)nc1C(F)(F)F (stereo not drawn) [3-151] | 100
14 | CCNC(=O)NCc1cnc(N2CCC(c3cc(Cl)c(Cl)c(Cl)c3)(C(F)(F)F)C2)nc1C(F)(F)F (stereo not drawn) [3-145] | 100
15 | O=C(NCc1ccc(N2CCC(c3cc(Cl)cc(Cl)c3)(C(F)(F)F)C2)cc1Cl)C1CCC1 (stereo not drawn) [1-8] | 100
16 | C=CC[S+]([O-])CC(=O)NCc1ccc(N2CCC(c3cc(Cl)c(Cl)c(Cl)c3)(C(F)(F)F)C2)cc1C(F)(F)F (stereo not drawn) [1-733] | 100
17 | CCC(=O)NCc1ccc(N2CCC(c3cc(C(F)(F)F)cc(C(F)(F)F)c3)(C(F)(F)F)C2)cc1Br (stereo not drawn) [1-312] | 100
18 | C#CCNC(=O)NCc1ccc(N2CCC(c3cc(Cl)cc(Cl)c3)(C(F)(F)F)C2)cc1Cl (stereo not drawn) [1-88] | 100
19 | CCC(=O)NCc1cnc(N2CCC(c3cc(C(F)(F)F)cc(C(F)(F)F)c3)(C(F)(F)F)C2)nc1C(F)(F)F (stereo not drawn) [3-148] | 100
20 | C[S+]([O-])CC(=O)NCc1ccc(N2CCC(c3cc(Cl)c(Cl)c(Cl)c3)(C(F)(F)F)C2)cc1C(F)(F)F (stereo not drawn) [1-729] | 100

Row | SMILES | activity (100% means that all eggs are infertile) [%]
21 | CSCC(=O)NCc1ccc(N2CCC(c3cc(Cl)c(Cl)c(Cl)c3)(C(F)(F)F)C2)cc1C(F)(F)F (stereo not drawn) [1-728] | 100
22 | O=C(NCc1ccc(N2CCC(c3cc(Cl)c(Cl)c(Cl)c3)(C(F)(F)F)C2)cc1Br)C1CC1 (stereo not drawn) [1-346] | 100
23 | CC(NC(=O)NCc1ccc(N2CCC(c3cc(Cl)cc(Cl)c3)(C(F)(F)F)C2)cc1Cl)c1nccs1 (stereo not drawn) [1-446] | 100
24 | CC(C)(C)OC(=O)NC1CCc2cc(N3CCC(c4cc(Cl)c(Cl)c(Cl)c4)(C(F)(F)F)C3)ccc21 (stereo not drawn) [6-802] | 100
25 | C=CCC(=O)NCc1ccc(N2CCC(c3cc(Cl)cc(Cl)c3)(C(F)(F)F)C2)cc1Cl (stereo not drawn) [1-36] | 100
26 | O=C(NCc1ccc(N2CCC(c3cc(C(F)(F)F)cc(C(F)(F)F)c3)(C(F)(F)F)C2)cc1[N+](=O)[O-])C1CC1 (stereo not drawn) [1-319] | 100
27 | O=C(CC(F)(F)F)NCc1cnc(N2CCC(c3cc(C(F)(F)F)cc(C(F)(F)F)c3)(C(F)(F)F)C2)nc1C(F)(F)F (stereo not drawn) [3-150] | 100
28 | O=C(CC(F)(F)F)NCc1cnc(N2CCC(c3cc(Cl)c(Cl)c(Cl)c3)(C(F)(F)F)C2)cc1C(F)(F)F (stereo not drawn) [1-380] | 100
29 | CCC(=O)NCc1ccc(N2CCC(c3cc(Cl)cc(Cl)c3)(C(F)(F)F)C2)cc1Br (stereo not drawn) [1-285] | 100
30 | CC(C)NC(=O)NCc1ccc(N2CCC(c3cc(C(F)(F)F)cc(C(F)(F)F)c3)(C(F)(F)F)C2)cc1C(F)(F)F (stereo not drawn) [1-304] | 100
31 | CC(=O)NCc1cnc(N2CCC(c3cc(Cl)c(Cl)c(Cl)c3)(C(F)(F)F)C2)nc1C(F)(F)F (stereo not drawn) [3-141] | 100
32 | C=CCSCC(=O)NCc1ccc(N2CCC(c3cc(Cl)c(Cl)c(Cl)c3)(C(F)(F)F)C2)cc1C(F)(F)F (stereo not drawn) [1-732] | 100
33 | CCS(=O)(=O)CC(=O)NCc1ccc(N2CCC(c3cc(Cl)cc(Cl)c3)(C(F)(F)F)C2)cc1C(F)(F)F (stereo not drawn) [1-501] | 100
34 | CC(C)(C)OC(=O)NCc1ccc(N2CCC(c3cc(Cl)cc(Cl)c3)(C(F)(F)F)C2)cc1C(F)(F)F (stereo not drawn) [1-270] | 100
35 | O=C(CC(F)(F)F)NCc1cnc(N2CCC(c3cc(Cl)c(Cl)c(Cl)c3)(C(F)(F)F)C2)nc1C(F)(F)F (stereo not drawn) [3-144] | 100
36 | C=CCS(=O)(=O)CC(=O)NCc1ccc(N2CCC(c3cc(C(F)(F)F)cc(C(F)(F)F)c3)(C(F)(F)F)C2)cc1C(F)(F)F (stereo not drawn) [1-971] | 100
37 | CC(=O)NCc1ccc(N2CCC(c3cc(C(F)(F)F)cc(C(F)(F)F)c3)(C(F)(F)F)C2)cc1[N+](=O)[O-] (stereo not drawn) [1-317] | 100
38 | CC(C)C(=O)NCc1ccc(N2CCC(c3cc(Cl)c(Cl)c(Cl)c3)(C(F)(F)F)C2)cc1C(F)(F)F (stereo not drawn) [1-329] | 100
39 | O=C(CC(F)(F)F)NCc1cnc(N2CCC(c3cc(C(F)(F)F)cc(C(F)(F)F)c3)(C(F)(F)F)C2)cc1C(F)(F)F (stereo not drawn) [1-386] | 100
40 | CCCNC(=O)NCc1ccc(N2CCC(c3cc(C(F)(F)F)cc(C(F)(F)F)c3)(C(F)(F)F)C2)cc1C(F)(F)F (stereo not drawn) [1-303] | 100

Row | SMILES | activity (100% means that all eggs are infertile) [%]
41 | O=C(NCC(F)(F)F)c1sc(N2CCC(c3cc(Cl)cc(Cl)c3)(C(F)(F)F)C2)nc1C(F)(F)F (stereo not drawn) [4-8] | 100
42 | CC(C)C(=O)NCc1ccc(N2CCC(c3cc(Cl)cc(Cl)c3)(C(F)(F)F)C2)cc1C(F)(F)F (stereo not drawn) [1-145] | 100
43 | O=C(NCc1ccc(N2CCC(c3cc(Cl)cc(Cl)c3)(C(F)(F)F)C2)cc1C(F)(F)F)C1CCC1 (stereo not drawn) [1-150] | 100
44 | O=C(CC(F)(F)F)NCc1ccc(N2CCC(c3cc(C(F)(F)F)cc(C(F)(F)F)c3)(C(F)(F)F)C2)cc1C(F)(F)F (stereo not drawn) [1-296] | 100
45 | C=CCC(=O)NCc1ccc(N2CCC(c3cc(Cl)cc(Cl)c3)(C(F)(F)F)C2)cc1C(F)(F)F (stereo not drawn) [1-180] | 100
46 | O=C(NCc1ccc(N2CCC(c3cc(Cl)cc(Cl)c3)(C(F)(F)F)C2)cc1C(F)(F)F)NC1CCC1 (stereo not drawn) [1-227] | 100
47 | O=C(NCc1ccccn1)c1sc(N2CCC(c3cc(C(F)(F)F)cc(C(F)(F)F)c3)(C(F)(F)F)C2)nc1C(F)(F)F (stereo not drawn) [4-35] | 100
48 | O=C(CC(F)(F)F)NCc1ccc(N2CCC(c3cc(Cl)c(Cl)c(Cl)c3)(C(F)(F)F)C2)cc1C(F)(F)F (stereo not drawn) [1-327] | 100
49 | NCc1ccc(N2CCC(c3cc(C(F)(F)F)cc(C(F)(F)F)c3)(C(F)(F)F)C2)cc1C(F)(F)F (stereo not drawn) [1-295] | 100
50 | O=C(NCc1ccc(N2CCC(c3cc(C(F)(F)F)cc(C(F)(F)F)c3)(C(F)(F)F)C2)cc1Cl)C1CC1 (stereo not drawn) [1-308] | 100
51 | CC(=O)CC(=O)NCc1ccc(N2CCC(c3cc(C(F)(F)F)cc(C(F)(F)F)c3)(C(F)(F)F)C2)cc1C(F)(F)F (stereo not drawn) [1-963] | 100
52 | O=C(NCc1sc(N2CCC(c3cc(Cl)c(Cl)c(Cl)c3)(C(F)(F)F)C2)nc1C(F)(F)F)C1CC1 (stereo not drawn) [5-143] | 100
53 | CCCNC(=O)NCc1ccc(N2CCC(c3cc(Cl)cc(Cl)c3)(C(F)(F)F)C2)cc1C(F)(F)F (stereo not drawn) [1-222] | 100
54 | CC(NC(=O)NCc1ccc(N2CCC(c3cc(Cl)cc(Cl)c3)(C(F)(F)F)C2)cc1Cl)C(F)(F)F (stereo not drawn) [1-442] | 100
55 | C=CC[S+]([O-])CC(=O)NCc1ccc(N2CCC(c3cc(C(F)(F)F)cc(C(F)(F)F)c3)(C(F)(F)F)C2)cc1C(F)(F)F (stereo not drawn) [1-970] | 100
56 | O=C(NCc1ccc(N2CCC(c3cc(Cl)cc(Cl)c3)(C(F)(F)F)C2)cc1Cl)C1CC1(Cl)Cl (stereo not drawn) [1-24] | 100
57 | CS(=O)(=O)CC(=O)NCc1ccc(N2CCC(c3cc(C(F)(F)F)cc(C(F)(F)F)c3)(C(F)(F)F)C2)cc1C(F)(F)F (stereo not drawn) [1-968] | 100
58 | O=C(CC(F)(F)F)NCc1sc(N2CCC(c3cc(Cl)c(Cl)c(Cl)c3)(C(F)(F)F)C2)nc1C(F)(F)F (stereo not drawn) [5-144] | 100
59 | O=C(NCc1ccc(N2CCC(c3cc(Cl)cc(Cl)c3)(C(F)(F)F)C2)cc1C(F)(F)F)NC1CC1 (stereo not drawn) [1-224] | 100
60 | CS(=O)(=O)CC(=O)NCc1ccc(N2CCC(c3cc(Cl)c(Cl)c(Cl)c3)(C(F)(F)F)C2)cc1C(F)(F)F (stereo not drawn) [1-730] | 100

— US9266830B2, “Pesticidal arylpyrrolidines” (Bayer Intellectual Property GmbH, priority 2007, dated 2016)
